The values below come from ChEMBL document CHEMBL4673323, “Novel molecular hybrids of indoline spiropyrans and α-lipoic acid as potential photopharmacological agents: Synthesis, structure, photochromic and biological properties” (Bioorg Med Chem Lett, 2021).

Data set [1] has as its system HeLa. Put plainly: Antioxidant activity in human HeLa cells assessed as decrease in nuclear ROS at 500 uM measured after 24 hrs by CellROX reagent based flow cytometry relative to control. The data set is classed as functional. A general note: In flow cytometry, cells or beads pass a laser one at a time.
Data set [2] in a line: Cytotoxicity against human HeLa cells assessed as decrease in cell viability at 2 mM measured after 24 hrs relative to 8% DMSO control. The format is cell-based. The following applies: read-out: INH.
Data set [3] is described as follows: Cytotoxicity against human HeLa cells assessed as effect on cell viability at 500 uM measured after 24 hrs (Rvb (2% DMSO) = 93.5 +/- 3.19 %). The format is cell-based. To be noted: read-out: Activity.
In data set [4] the test system is HeLa. Put plainly: Antioxidant activity in human HeLa cells assessed as decrease in mitochondrial ROS at 500 uM measured after 24 hrs by CellROX reagent based flow cytometry relative to control. The format is functional.
The subject of data set [5] is HeLa. Briefly: Antioxidant activity in human HeLa cells assessed as increase in cellular thiol level at 2 mM measured after 24 hrs by Thiol-tracker violet molecular probe based assay relative to control. The format is functional.
Data set [6] can be described thus: Cytotoxicity against human HeLa cells assessed as effect on cell viability at 2 mM measured after 24 hrs (Rvb (8% DMSO) = 79.08 +/- 10.78 %). The data set is classed as cell-based. To be noted: read-out: Activity.
Data set [7] deals with HeLa. Put plainly: Antioxidant activity in human HeLa cells assessed as increase in cellular thiol level at 500 uM measured after 24 hrs by Thiol-tracker violet molecular probe based assay relative to control. The format is functional.
The nature of data set [8]: Effect on biochemical parameters of gross oxidative status in human HeLa cells at 500 uM measured after 24 hrs relative to control. The format is ADME, cell-based.
The test system of data set [9] is HeLa. Put plainly: Antioxidant activity in human HeLa cells assessed as decrease in cytosolic ROS at 500 uM measured after 24 hrs by CellROX orange reagent based flow cytometry. The data set is classed as functional, cell-based.
Data set [10] is described as follows: Photochromic activity assessed as photoinduced isomerization by measuring increase in intensity of the absorption at 568 to 574 nm by UV spectra.
For data set [11], the system named is HeLa. Briefly: Antioxidant activity in human HeLa cells assessed as increase in cellular thiol level at 500 uM measured after 24 hrs by Thiol-tracker violet molecular probe based assay. The data set is classed as functional, cell-based.
The nature of data set [12]: Cytotoxicity against human HeLa cells assessed as decrease in cell viability at 500 uM measured after 24 hrs relative to 2% DMSO control. The data set is classed as cell-based. To be noted: read-out: INH.
Data set [13] has as its system HeLa. Briefly: Antioxidant activity in human HeLa cells assessed as decrease in nuclear ROS at 500 uM measured after 24 hrs by CellROX reagent based flow cytometry. The format is functional, cell-based.
Data set [14] relates to HeLa. Briefly: Antioxidant activity in human HeLa cells assessed as decrease in mitochondrial ROS at 500 uM measured after 24 hrs by CellROX reagent based flow cytometry. The data set is classed as functional, cell-based.
Data set [15] relates to HeLa. Briefly: Antioxidant activity in human HeLa cells assessed as decrease in cytosolic ROS at 500 uM measured after 24 hrs by CellROX orange reagent based flow cytometry relative to control. The format is functional.
For data set [16], the system named is HeLa. Put plainly: Cytotoxicity against human HeLa cells assessed as decrease in cell viability measured after 24 hrs. The data set is classed as cell-based.

SMILES strings stand for the structures. Calls of active or inactive are those of the source. The calls are words filed in the database; no cut-off is given here.

Turning to `O=C(O)CCCCC1CCSS1` (stereo not drawn) [LIPOIC ACID, ALPHA], the inhibition at 500 µM in the data set on HeLa [1] and with HeLa [4] was 31% in each case. Also, the cytotoxicity at 24 h, 2000 µM in data set [2] was found to be 32.7%. Further, the viability at 24 h, 500 µM in data set [3] stood at 94.7%. The Activity in the data set on HeLa [5] amounted to 90%. For the same compound, the viability at 24 h, 2000 µM in data set [6] came out at 51.8%.
Take `CN1c2ccccc2C(C)(C)C12C=Cc1c(ccc3ccc(OC(=O)CCCCC4CCSS4)cc13)O2` (stereo unspecified): the Activity was 35% in the data set with HeLa [7] and “Non-Toxic” in [8]. The viability at 24 h, 500 µM in [3] was found to be 95%. Moreover, the viability at 24 h, 2000 µM in [6] worked out at 73.4%. The inhibition (in general, the relative decrease from the control value, in per cent) in the data set on HeLa [9] is “inactive”. The result in data set [10] was inactive. For the same compound, the result in the data set with HeLa [11] was Active.
On to `CN1c2ccccc2C(C)(C)C12C=Cc1c(ccc3ccc(O)cc13)O2` (stereo unspecified), for which the cytotoxicity at 24 h, 500 µM in data set [12] came out at 11.9%. Besides, the viability at 24 h, 500 µM in [3] was 84.5%. Further, in [6], the viability at 24 h, 2000 µM was 66.5%. In addition, the result in data set [10] was inactive.
As for `COc1ccc2c(c1)C(C)(C)C1(C=Cc3c(ccc4ccc(OC(=O)CCCCC5CCSS5)cc34)O1)N2C` (stereo unspecified), the inhibition entry with HeLa [13] and in the data set with HeLa [14] was “inactive” each time. In addition, the Activity with HeLa [7] was determined as 30%. In data set [12], the cytotoxicity at 24 h, 500 µM stood at 8.3%. For the same compound, the viability at 24 h, 500 µM in data set [3] was found to be 89.3%. Further, in the data set with HeLa [15], the inhibition at 500 µM amounted to 78%. The viability at 24 h, 2000 µM in data set [6] was 77.9%. In addition, the outcome (in [10]; in the data set on HeLa [11]) was Active.
Consider `COc1ccc2c(c1)C(C)(C)C1(C=Cc3c(ccc4ccc(O)cc34)O1)N2C` (stereo unspecified), for which the cytotoxicity at 24 h, 2000 µM in data set [2] is 93.7%. The cytotoxicity at 24 h, 500 µM in data set [12] was 98.4%. For the same compound, the viability at 24 h, 500 µM in [3] was found to be 4.19%. In the data set on HeLa [16], the IC50 (in general, the midpoint of a concentration-inhibition curve) stood at 46.2 µM. For the same compound, in data set [6], the viability at 24 h, 2000 µM stood at 5%.
